Laboratory results published in patent EP4201929A1, “QUINOXALINE THIOREDOXIN REDUCTASE INHIBITORS” (geneXplain GmbH, priority 2021, dated 2023).

How the values were obtained:
Experiment in all cases: Growth suppression, cancer cell line panel (resazurin)
Type in all cases: cell-based
MDA-MB-468 = MDA-MB-468 breast, 48 hours
Experimental: (§1) Breast, colon, ovarian, cervical, liver and lung carcinoma cell lines were grown in DMEM supplemented with 10% FBS, and antibiotics were cultured at 37 °C and 5% CO2. Osteosarcoma, melanoma, lymphoma, neuroblastoma and leukemia cell lines were cultured in RPMI 1640 with 10% FBS and antibiotics. An oxygen concentration of 0.3% was obtained by flushing a sealed box containing the cells with premixed gas composed of 95% nitrogen (N2) and 5% CO2 (AGA AB, Sweden). To obtain an oxygen concentration of 0.05%, the cells were flushed with the premixed gas continuously throughout the experiment.
(§2) Cells were grown in 96-well plates at a density of 3000 cells per well with or without doxycycline and treated with compounds. After 48 hours of incubation the proliferative cell reagent resazurin (Thermo Fisher Scientific) was added to the cells. The degree of resazurin reduction, which reflects cell viability, was measured by microplate reader by monitoring the absorbance at 570 nm and 600 nm, according to the manufacturer.
(§3) Growth suppression by the soluble compound 1d*HCl in a panel of 27 cancer cell lines. The panel of cancer cell lines, including carcinomas of breast (MDA-MB231, SKBR3, T47D, MCF7; BT549, BT20, MDA-MB468), colon, (SW480, RKO, HT29, HCT116) ovarian (OVCAR3, OVCAR4, OVCAR8), cervical (SW756, C33A), liver (HEPG2) and lung (H23), osteosarcoma (SJSA and U2OS), melanoma (ME180), lymphoma (Raji, HDLM2), neuroblastoma (SKNAS, IMR32) and leukemia (NB4, K562) were treated with increasing concentrations of 1d*HCl: 0.4; 0.8; 1.6; 3.2; 6.4; 12.8; 25.6 µM in 96-well plates. After 48 hours of incubation the proliferative cell reagent resazurin was added to the cells. The degree of resazurin reduction, which reflects cell viability, was measured by microplate reader by monitoring the absorbance at 570 nm and 600 nm, according to the manufacturer, and the IC50 and AUC (area under curve) were determined (Table 2). As could be seen in Table 2, 1d*HCl suppressed the growth of cancer cell lines of a different origin, including carcinomas, osteosarcomas, melanoma, lymphoma, leukemia and neuroblastoma. These findings open up a possibility of the application of the present invention in anti-cancer therapy in a broad range of tumor types. Table 2: a) Breast cancer

MDA- MB231 = conditions: MDA-MB231 breast, 48 hours
Experimental: as §1, §2, §3

SJSA = SJSA osteosarcoma, 48 hours
Experimental: as §1, §2, §3

HCT116 = HCT116 colon, 48 hours
Experimental: as §1, §2, §3

OVCAR4 = OVCAR4 ovarian, 48 hours
Experimental: as §1, §2, §3

HT29 = HT29 colon, 48 hours
Experimental: as §1, §2, §3

BT549 = BT549 breast, 48 hours
Experimental: as §1, §2, §3

Raji = Raji lymphoma, 48 hours
Experimental: as §1, §2, §3

HepG2 = HepG2 liver, 48 hours
Experimental: as §1, §2, §3

K562 = K562 leukemia, 48 hours
Experimental: as §1, §2, §3

NB4 = NB4 leukemia, 48 hours
Experimental: as §1, §2, §3

SKBR3 = SKBR3 breast, 48 hours
Experimental: as §1, §2, §3

H23 = H23 lung, 48 hours
Experimental: as §1, §2, §3

OVCAR3 = OVCAR3 ovarian, 48 hours
Experimental: as §1, §2, §3

C33A = C33A cervical, 48 hours
Experimental: as §1, §2, §3

SKNAS = SKNAS neuroblastoma, 48 hours
Experimental: as §1, §2, §3

IMR32 = IMR32 neuroblastoma, 48 hours
Experimental: as §1, §2, §3

SW480 = SW480 colon, 48 hours
Experimental: as §1, §2, §3

T47D = T47D breast, 48 hours
Experimental: as §1, §2, §3

SW756 = SW756 cervical, 48 hours
Experimental: as §1, §2, §3

MCF7 = MCF7 breast, 48 hours
Experimental: as §1, §2, §3

BT20 = BT20 breast, 48 hours
Experimental: as §1, §2, §3

Cl.N#Cc1c(-c2cccnc2)[n+]([O-])c2cc(F)c(N3CCOCC3)cc2[n+]1[O-] [1d*HCl, 6-Fluoro-7-(morpholin-4-yl)-3-(pyridin-3-yl)quinoxaline-2-carbonitrile-1,4-dioxide hydrochloride]
IC50 (MDA-MB-468; Homo sapiens, resazurin): 2780 nM | AUC (MDA-MB-468; area under curve, 0.4-25.6 µM): 4,04 | IC50 (MDA- MB231; Homo sapiens, MDA-MB-231, resazurin): 780 nM | AUC (MDA- MB231; area under curve, 0.4-25.6 µM): 1,21 | IC50 (SJSA; resazurin, read-out: ICso): 4080 nM | AUC (SJSA; area under curve, 0.4-25.6 µM): 4,96 | AUC (HCT116; area under curve, 0.4-25.6 µM): 1,37 | IC50 (HCT116; Homo sapiens, HCT-116, resazurin): 860 nM | IC50 (OVCAR4; Homo sapiens, OVCAR-4, resazurin): 1570 nM | AUC (OVCAR4; area under curve, 0.4-25.6 µM): 3,7 | AUC (HT29; area under curve, 0.4-25.6 µM): 4,77 | IC50 (HT29; Homo sapiens, HT-29, resazurin): 3500 nM | AUC (BT549; area under curve, 0.4-25.6 µM): 2,52 | IC50 (BT549; Homo sapiens, BT-549, resazurin): 1700 nM | IC50 (Raji; Homo sapiens, resazurin): 1220 nM | AUC (Raji; area under curve, 0.4-25.6 µM): 2,93 | AUC (HepG2; area under curve, 0.4-25.6 µM): 4,54 | IC50 (HepG2; Homo sapiens, resazurin, read-out: ICso): 3590 nM | IC50 (K562; Homo sapiens, resazurin): 2950 nM | AUC (K562; area under curve, 0.4-25.6 µM): 4,39 | IC50 (NB4; resazurin): variable | AUC (NB4; area under curve, 0.4-25.6 µM): 25,4 | IC50 (SKBR3; Homo sapiens, SK-BR-3, resazurin): 2130 nM | AUC (SKBR3; area under curve, 0.4-25.6 µM): 3,06 | AUC (H23; area under curve, 0.4-25.6 µM): 5,38 | IC50 (H23; Homo sapiens, NCI-H23, resazurin, read-out: ICso): 3540 nM | IC50 (OVCAR3; Homo sapiens, OVCAR-3, resazurin): 2640 nM | AUC (OVCAR3; area under curve, 0.4-25.6 µM): 4,813 | IC50 (C33A; resazurin): variable | AUC (C33A; area under curve, 0.4-25.6 µM): 21 | IC50 (SKNAS; Homo sapiens, SK-N-AS, resazurin, read-out: ICso): 4680 nM | AUC (SKNAS; area under curve, 0.4-25.6 µM): 7,73 | IC50 (IMR32; Homo sapiens, IMR-32, resazurin, read-out: ICso): 5150 nM | AUC (IMR32; area under curve, 0.4-25.6 µM): 6,40 | IC50 (SW480; Homo sapiens, resazurin): 3720 nM | AUC (SW480; area under curve, 0.4-25.6 µM): 4,78 | IC50 (T47D; Homo sapiens, resazurin): 2740 nM | AUC (T47D; area under curve, 0.4-25.6 µM): 3,93 | IC50 (SW756; Homo sapiens, resazurin): 1540 nM | AUC (SW756; area under curve, 0.4-25.6 µM): 2,84 | IC50 (MCF7; Homo sapiens, resazurin): 2540 nM | AUC (MCF7; area under curve, 0.4-25.6 µM): 3,64 | AUC (BT20; area under curve, 0.4-25.6 µM): 9,64 | IC50 (BT20; Homo sapiens, BT-20, resazurin): 5910 nM
